Reference: patent US9125913B2, “Bcl-2-selective apoptosis-inducing agents for the treatment of cancer and immune diseases” (AbbVie Inc., priority 2008, dated 2015)

Test system: GST-Bcl-2
Assay: TR-FRET binding assay, Bcl-2
Conditions: TR-FRET Ki values
How it was run: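 Compounds serially diluted in DMSO from 50 μM (2× starting concentration, 10% DMSO), mixed with GST-tagged protein, F-Bak peptide probe and Tb-labeled antibody, incubated 3 h at room temperature.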

SMILES | Binding selectivity ratio (Bcl-XL Ki/Bcl-2 Ki)
CC1(C)CCC(CN2CCN(c3ccc(C(=O)NS(=O)(=O)c4ccc(NCC5CCS(=O)(=O)C5)c([N+](=O)[O-])c4)c(Oc4ccc5[nH]ccc5c4)c3)CC2)=C(c2ccc(Cl)cc2)C1 (stereo not shown) [EXAMPLE 275, 4-(4-{[2-(4-chlorophenyl)-4,4-dimethylcyclohex-1-en-1-yl]methyl}piperazin-1-yl)-N-[(4-{[(1,1-dioxidotetrahydrothien-3-yl)methyl]amino}-3-nitrophenyl)sulfonyl]-2-(1H-indol-5-yloxy)benzamide] | >6832.4
CC1(C)CCC(CN2CCN(c3ccc(C(=O)NS(=O)(=O)c4ccc(NCCCn5ccnc5)c([N+](=O)[O-])c4)c(Oc4ccc5[nH]ccc5c4)c3)CC2)=C(c2ccc(Cl)cc2)C1 [EXAMPLE 377, 4-(4-{[2-(4-chlorophenyl)-4,4-dimethylcyclohex-1-en-1-yl]methyl}piperazin-1-yl)-N-[(4-{[3-(1H-imidazol-1-yl)propyl]amino}-3-nitrophenyl)sulfonyl]-2-(1H-indol-5-yloxy)benzamide] | 2317.4
CC1(C)CCC(CN2CCN(c3ccc(C(=O)NS(=O)(=O)c4ccc(NCC56CC7CC(C5)C(O)[C@H](C7)C6)c([N+](=O)[O-])c4)c(Oc4ccc5[nH]ccc5c4)c3)CC2)=C(c2ccc(Cl)cc2)C1 (stereo partly drawn) [EXAMPLE 321, 4-(4-{[2-(4-chlorophenyl)-4,4-dimethylcyclohex-1-en-1-yl]methyl}piperazin-1-yl)-N-{[4-({[(3R)-4-hydroxy-1-adamantyl]methyl}amino)-3-nitrophenyl]sulfonyl}-2-(1H-indol-5-yloxy)benzamide] | >957.9
CC1(C)CCC(CN2CCN(c3ccc(C(=O)NS(=O)(=O)c4ccc(NC5CCN(CCCF)CC5)c([N+](=O)[O-])c4)c(Oc4ccc5[nH]ccc5c4)c3)CC2)=C(c2ccc(Cl)cc2)C1 [EXAMPLE 235, 4-(4-{[2-(4-chlorophenyl)-4,4-dimethylcyclohex-1-en-1-yl]methyl}piperazin-1-yl)-N-[(4-{[1-(3-fluoropropyl)piperidin-4-yl]amino}-3-nitrophenyl)sulfonyl]-2-(1H-indol-5-yloxy)benzamide] | 231.4
CC1(C)CCC(CN2CCN(c3ccc(C(=O)NS(=O)(=O)c4ccc(NCCC(F)(F)F)c([N+](=O)[O-])c4)c(Oc4cccc5[nH]ccc45)c3)CC2)=C(c2ccc(Cl)cc2)C1 [EXAMPLE 323, 4-(4-{[2-(4-chlorophenyl)-4,4-dimethylcyclohex-1-en-1-yl]methyl}piperazin-1-yl)-2-(1H-indol-4-yloxy)-N-({3-nitro-4-[(3,3,3-trifluoropropyl)amino]phenyl}sulfonyl)benzamide] | >695.2
CN(C)CCCNc1ccc(S(=O)(=O)NC(=O)c2ccc(N3CCN(Cc4ccccc4-c4ccc(Cl)cc4)CC3)cc2Oc2ccccc2)cc1C(F)(F)F [Example 92, 4-{4-[(4′-chloro-1,1′-biphenyl-2-yl)methyl]piperazin-1-yl}-N-{[4-{[3-(dimethylamino)propyl]amino}-3-(trifluoromethyl)phenyl]sulfonyl}-2-phenoxybenzamide] | 79.7
CN1CCC(Nc2ccc(S(=O)(=O)NC(=O)c3ccc(N4CCN(CC5=C(c6ccc(Cl)cc6)CC(C)(C)CC5)CC4)cc3Nc3cccnc3)cc2[N+](=O)[O-])CC1 [EXAMPLE 396, 4-(4-{[2-(4-chlorophenyl)-4,4-dimethylcyclohex-1-en-1-yl]methyl}piperazin-1-yl)-N-({4-[(1-methylpiperidin-4-yl)amino]-3-nitrophenyl}sulfonyl)-2-(pyridin-3-ylamino)benzamide] | >5706
CC1(C)CCC(CN2CCN(c3ccc(C(=O)NS(=O)(=O)c4ccc(NC5CCN(C6CCOCC6)CC5)c([N+](=O)[O-])c4)c(Nc4cccnc4)c3)CC2)=C(c2ccc(Cl)cc2)C1 [EXAMPLE 397, 4-(4-{[2-(4-chlorophenyl)-4,4-dimethylcyclohex-1-en-1-yl]methyl}piperazin-1-yl)-N-({3-nitro-4-[(1-tetrahydro-2H-pyran-4-ylpiperidin-4-yl)amino]phenyl}sulfonyl)-2-(pyridin-3-ylamino)benzamide] | >28730.6285913286
CC1(C)CCC(CN2CCN(c3ccc(C(=O)NS(=O)(=O)c4ccc(NC[C@H]5CC[C@H](O)CC5)c([N+](=O)[O-])c4)c(Oc4ccc5[nH]ccc5c4)c3)CC2)=C(c2ccc(Cl)cc2)C1 [EXAMPLE 310, Trans-4-(4-{[2-(4-chlorophenyl)-4,4-dimethylcyclohex-1-en-1-yl]methyl}piperazin-1-yl)-N-[(4-{[(4-hydroxycyclohexyl)methyl]amino}-3-nitrophenyl)sulfonyl]-2-(1H-indol-5-yloxy)benzamide] | >13469.4
CCN(CC)C1CCC(Nc2ccc(S(=O)(=O)NC(=O)c3ccc(N4CCN(CC5=C(c6ccc(Cl)cc6)CC(C)(C)CC5)CC4)cc3Oc3cccc4[nH]ccc34)cc2[N+](=O)[O-])CC1 (stereo not shown) [EXAMPLE 203, 4-(4-{[2-(4-chlorophenyl)-4,4-dimethylcyclohex-1-en-1-yl]methyl}piperazin-1-yl)-N-[(4-{[4-(diethylamino)cyclohexyl]amino}-3-nitrophenyl)sulfonyl]-2-(1H-indol-4-yloxy)benzamide] | 139.5
CC(C)(C)c1ccc(CN2CCN(c3ccc(C(=O)NS(=O)(=O)c4ccc(NC5CCN(C6CCOCC6)CC5)c([N+](=O)[O-])c4)c(Oc4ccc5[nH]ccc5c4)c3)CC2)c(-c2ccc(Cl)cc2)c1 [EXAMPLE 359, 4-{4-[(5-tert-butyl-4′-chloro-1,1′-biphenyl-2-yl)methyl]piperazin-1-yl}-2-(1H-indol-5-yloxy)-N-({3-nitro-4-[(1-tetrahydro-2H-pyran-4-ylpiperidin-4-yl)amino]phenyl}sulfonyl)benzamide] | >49.0
CC1(C)CCC(CN2CCN(c3ccc(C(=O)NS(=O)(=O)c4ccc(NCC(F)(F)F)c([N+](=O)[O-])c4)c(Oc4cccc5[nH]ccc45)c3)CC2)=C(c2ccc(Cl)cc2)C1 [EXAMPLE 343, 4-(4-{[2-(4-chlorophenyl)-4,4-dimethylcyclohex-1-en-1-yl]methyl}piperazin-1-yl)-2-(1H-indol-4-yloxy)-N-({3-nitro-4-[(2,2,2-trifluoroethyl)amino]phenyl}sulfonyl)benzamide] | >1145.9
CC1(C)CCC(CN2CCN(c3ccc(C(=O)NS(=O)(=O)c4cnc(OC[C@@H]5CCN(C(CF)CF)C5)c(Cl)c4)c(Oc4cccc5[nH]ncc45)c3)CC2)=C(c2ccc(Cl)cc2)C1 [EXAMPLE 444, N-{[5-chloro-6-({(3R)-1-[2-fluoro-1-(fluoromethyl)ethyl]pyrrolidin-3-yl}methoxy)pyridin-3-yl]sulfonyl}-4-(4-{[2-(4-chlorophenyl)-4,4-dimethylcyclohex-1-en-1-yl]methyl}piperazin-1-yl)-2-(1H-indazol-4-yloxy)benzamide] | 727.625
CC1(C)CCC(CN2CCN(c3ccc(C(=O)NS(=O)(=O)c4ccc(OC[C@@H]5COCCO5)c([N+](=O)[O-])c4)c(Oc4ccc5[nH]ccc5c4)c3)CC2)=C(c2ccc(Cl)cc2)C1 [EXAMPLE 347, 4-(4-{[2-(4-chlorophenyl)-4,4-dimethylcyclohex-1-en-1-yl]methyl}piperazin-1-yl)-N-({4-[(2S)-1,4-dioxan-2-ylmethoxy]-3-nitrophenyl}sulfonyl)-2-(1H-indol-5-yloxy)benzamide] | 1256.7
CN1CCC(Nc2ccc(S(=O)(=O)NC(=O)c3ccc(N4CCN(CC5=C(c6ccc(Cl)cc6)CC(C)(C)CC5)CC4)cc3Oc3cccc4c3CCN4)cc2[N+](=O)[O-])CC1 [EXAMPLE 395, 4-(4-{[2-(4-chlorophenyl)-4,4-dimethylcyclohex-1-en-1-yl]methyl}piperazin-1-yl)-2-(2,3-dihydro-1H-indol-4-yloxy)-N-({4-[(1-methylpiperidin-4-yl)amino]-3-nitrophenyl}sulfonyl)benzamide] | 23.62
COC1CCN(c2ccc(S(=O)(=O)NC(=O)c3ccc(N4CCN(CC5=C(c6ccc(Cl)cc6)CC(C)(C)CC5)CC4)cc3Oc3ccc4[nH]ccc4c3)cc2[N+](=O)[O-])CC1 [EXAMPLE 271, 4-(4-{[2-(4-chlorophenyl)-4,4-dimethylcyclohex-1-en-1-yl]methyl}piperazin-1-yl)-2-(1H-indol-5-yloxy)-N-{[4-(4-methoxypiperidin-1-yl)-3-nitrophenyl]sulfonyl}benzamide] | >107.2
CN1CCN(Nc2ccc(S(=O)(=O)NC(=O)c3ccc(N4CCN(CC5=C(c6ccc(Cl)cc6)CC(C)(C)CC5)CC4)cc3Oc3cccc4[nH]cnc34)cc2[N+](=O)[O-])CC1 [EXAMPLE 453, 2-(1H-benzimidazol-4-yloxy)-4-(4-{[2-(4-chlorophenyl)-4,4-dimethylcyclohex-1-en-1-yl]methyl}piperazin-1-yl)-N-({4-[(4-methylpiperazin-1-yl)amino]-3-nitrophenyl}sulfonyl)benzamide] | 363.04
CC1(C)CCC(CN2CCN(c3ccc(C(=O)NS(=O)(=O)c4cnc(NCC5CCOCC5)c(C#N)c4)c(Oc4ccc5[nH]ccc5c4)c3)CC2)=C(c2ccc(Cl)cc2)C1 [EXAMPLE 352, 4-(4-{[2-(4-chlorophenyl)-4,4-dimethylcyclohex-1-en-1-yl]methyl}piperazin-1-yl)-N-({5-cyano-6-[(tetrahydro-2H-pyran-4-ylmethyl)amino]pyridin-3-yl}sulfonyl)-2-(1H-indol-5-yloxy)benzamide] | >96.7
CC1(C)CCC(CN2CCN(c3ccc(C(=O)NS(=O)(=O)c4ccc(NC5CCN(S(C)(=O)=O)CC5)c([N+](=O)[O-])c4)c(Oc4cccc5[nH]ccc45)c3)CC2)=C(c2ccc(Cl)cc2)C1 [EXAMPLE 338, 4-(4-{[2-(4-chlorophenyl)-4,4-dimethylcyclohex-1-en-1-yl]methyl}piperazin-1-yl)-2-(1H-indol-4-yloxy)-N-[(4-{[1-(methylsulfonyl)piperidin-4-yl]amino}-3-nitrophenyl)sulfonyl]benzamide] | >1637.7
